Columns and labels:
Homo sapiens = species: Homo sapiens; experiment: In vitro significant inhibitory activity against human colon […]; type: functional; conditions: read-out: ID50 (the source's name)
L1210 = experiment: In vitro significant inhibitory activity against L1210 leukemia cell lines; type: functional; conditions: Mus musculus, read-out: ID50 (the source's name)

| Compound | IC50 (Homo sapiens) | IC50 (L1210) |
| --- | --- | --- |
| CN(C)Cc1ccc(NC2=C(Cl)C(=O)C(Nc3ccc(CN(C)C)cc3)=C(Cl)C2=O)cc1 | 100 nM | 37 nM |
| CO[C@H](C(=O)[C@@H](O)[C@@H](C)O)[C@@H]1Cc2cc3cc(O[C@H]4C[C@@H](O[C@@H]5C[C@@H](O)[C@H](O)[C@@H](C)O5)[C@H](O)[C@@H](C)O4)c(C)c(O)c3c(O)c2C(=O)[C@H]1O[C@H]1C[C@@H](O[C@@H]2C[C@@H](O)[C@@H](O[C@@H]3C[C@](C)(O)[C@H](O)[C@@H](C)O3)[C@@H](C)O2)[C@H](O)[C@@H](C)O1 [PLICAMYCIN] | 80 nM | – |
| CN(C)Cc1ccc(NC2=C(Br)C(=O)C(Nc3ccc(CN(C)C)cc3)=C(Br)C2=O)cc1 | 140 nM | – |

Reference: ChEMBL document CHEMBL1123446, “Amino-substituted p-benzoquinones” (1986)
